This is an account of results in ChEMBL document CHEMBL4330092, “Optimization of Vinyl Sulfone Derivatives as Potent Nuclear Factor Erythroid 2-Related Factor 2 (Nrf2) Activators for Parkinson's Disease Therapy” (J Med Chem, 2019).

Data set [1] is described as follows: Aqueous solubility of the compound. The note with it: aqueous medium. The format is physicochemical.
Data set [2] is described as follows: Dissociation constant, pKa of the compound. It is filed as physicochemical.
Data set [3] can be described thus: Tmax in rat at 10 mg/kg, po. The format is ADME, organism-based. As to conditions: in vivo.
The nature of data set [4]: Lipophilicity, log P of the compound. The format is physicochemical. As to conditions: octanol/water.
Data set [5] in a line: Oral bioavailability in rat at 10 mg/kg. It is filed as ADME, organism-based. As to conditions: in vivo.

Consider `COc1ccccc1S(=O)(=O)/C=C/c1ccccc1Cl`, for which, in data set [1], the solubility (commonly how much of the substance goes into solution per volume) was under 0.01 mg/mL.
Take `Cl.O=S(=O)(/C=C/c1ncccc1F)c1ccc(OCCCN2CCOCC2)cc1`: the solubility in data set [1] was over 30 mg/mL. Besides, the pKa (in general, the pH at which an ionisable group is half protonated) in data set [2] amounted to 7.58. Further, the Tmax – broadly, the time from dosing to the highest level – in data set [3] came to 24 min. Also, the logP (usually a log measure of how a compound divides between an organic and an aqueous phase) in data set [4] was found to be 2.29. Further, the bioavailability (usually dose-corrected exposure relative to a reference, in per cent) in data set [5] came to 45.3%.
